Laboratory results as given in the NIST ThermoML archive (doi:10.1021/je800110r).

Details: Liquid, Vibrating tube method

CCCCCCCCCC [decane]
Details	mass density [kg/m3]
303.15 K, 32305 kPa	745.4
303.15 K, 32325 kPa	745.3
303.15 K, 32357 kPa	745.5
303.15 K, 32384 kPa	745.5
303.15 K, 32413 kPa	745.5
303.15 K, 32436 kPa	745.5
303.15 K, 32459 kPa	745.5
303.15 K, 32482 kPa	745.5
303.15 K, 32502 kPa	745.6
303.15 K, 32522 kPa	745.4
303.15 K, 32543 kPa	745.6
303.15 K, 32563 kPa	745.6
303.15 K, 32588 kPa	745.6
303.15 K, 32611 kPa	745.7
303.15 K, 32637 kPa	745.6
303.15 K, 32667 kPa	745.7
303.15 K, 32691 kPa	745.7
303.15 K, 32718 kPa	745.7
303.15 K, 32741 kPa	745.7
303.15 K, 32758 kPa	745.8
303.15 K, 32788 kPa	745.8
303.15 K, 32812 kPa	745.8
303.15 K, 32840 kPa	745.9
303.15 K, 32864 kPa	745.9
303.15 K, 32892 kPa	745.8
303.15 K, 32923 kPa	745.8
303.15 K, 32943 kPa	745.9
303.15 K, 32971 kPa	745.9
303.15 K, 32989 kPa	745.9
303.15 K, 33010 kPa	745.9
303.15 K, 33031 kPa	746
303.15 K, 33062 kPa	746
303.15 K, 33093 kPa	746
303.15 K, 33114 kPa	746
303.15 K, 33138 kPa	746.1
303.15 K, 33163 kPa	746
303.15 K, 33184 kPa	746
303.15 K, 33212 kPa	746.1
303.15 K, 33230 kPa	746.1
303.15 K, 33258 kPa	746.1
303.15 K, 33286 kPa	746
303.15 K, 33314 kPa	746.1
303.15 K, 33339 kPa	746.1
303.15 K, 33364 kPa	746
303.15 K, 33389 kPa	746.1
303.15 K, 33424 kPa	746.1
303.15 K, 33458 kPa	746.1
303.15 K, 33487 kPa	746.2
303.15 K, 33512 kPa	746.2
303.15 K, 33545 kPa	746.2
303.15 K, 33566 kPa	746.3
303.15 K, 33588 kPa	746.3
303.15 K, 33621 kPa	746.3
303.15 K, 33642 kPa	746.3
303.15 K, 33676 kPa	746.4
303.15 K, 33697 kPa	746.3
303.15 K, 33719 kPa	746.4
303.15 K, 33741 kPa	746.4
303.15 K, 33764 kPa	746.3
303.15 K, 33790 kPa	746.4
303.15 K, 33816 kPa	746.4
303.15 K, 33848 kPa	746.4
303.15 K, 33871 kPa	746.4
303.15 K, 33904 kPa	746.4
303.15 K, 33923 kPa	746.4
303.15 K, 33961 kPa	746.4
303.15 K, 33984 kPa	746.6
303.15 K, 34018 kPa	746.6
303.15 K, 34044 kPa	746.5
303.15 K, 34068 kPa	746.5
303.15 K, 34100 kPa	746.6
303.15 K, 34124 kPa	746.5
303.15 K, 34151 kPa	746.6
303.15 K, 34180 kPa	746.5
303.15 K, 34218 kPa	746.6
303.15 K, 34247 kPa	746.6
303.15 K, 34265 kPa	746.8
303.15 K, 34284 kPa	746.8
303.15 K, 34306 kPa	746.8
303.15 K, 34332 kPa	746.7
303.15 K, 34354 kPa	746.7
303.15 K, 34372 kPa	746.8
303.15 K, 34395 kPa	746.7
303.15 K, 34422 kPa	746.8
303.15 K, 34443 kPa	746.9
303.15 K, 34449 kPa	746.8
303.16 K, 4203 kPa	725.7
303.16 K, 4220 kPa	725.6
303.16 K, 4238 kPa	725.7
303.16 K, 4251 kPa	725.8
303.16 K, 4264 kPa	725.7
303.16 K, 4275 kPa	725.6
303.16 K, 4290 kPa	725.8
303.16 K, 4305 kPa	725.8
303.16 K, 4325 kPa	725.8
303.16 K, 4341 kPa	725.8
303.16 K, 4354 kPa	725.8
303.16 K, 4367 kPa	725.9
303.16 K, 4380 kPa	725.8
303.16 K, 4395 kPa	725.9
303.16 K, 4407 kPa	725.9
303.16 K, 4422 kPa	725.8
303.16 K, 4433 kPa	725.9
303.16 K, 4451 kPa	725.9
303.16 K, 4466 kPa	725.8
303.16 K, 4480 kPa	725.9
303.16 K, 4496 kPa	726
303.16 K, 4508 kPa	726
303.16 K, 4521 kPa	725.9
303.16 K, 4534 kPa	725.9
303.16 K, 4547 kPa	726
303.16 K, 4563 kPa	726
303.16 K, 4577 kPa	726.1
303.16 K, 4593 kPa	726
303.16 K, 4606 kPa	726
303.16 K, 4625 kPa	726
303.16 K, 4643 kPa	726
303.16 K, 4656 kPa	726.1
303.16 K, 4675 kPa	726.1
303.16 K, 4693 kPa	726.1
303.16 K, 4708 kPa	726.1
303.16 K, 4723 kPa	726.1
303.16 K, 4736 kPa	726.2
303.16 K, 4754 kPa	726.1
303.16 K, 4774 kPa	726.2
303.16 K, 4788 kPa	726.2
303.16 K, 4802 kPa	726.1
303.16 K, 4819 kPa	726.2
303.16 K, 4835 kPa	726.2
303.16 K, 4846 kPa	726.2
303.16 K, 4858 kPa	726.3
303.16 K, 4870 kPa	726.2
303.16 K, 4881 kPa	726.1
303.16 K, 4893 kPa	726.1
303.16 K, 4904 kPa	726.2
303.16 K, 4918 kPa	726.3
303.16 K, 4931 kPa	726.3
